Some test systems named below: CAKI-1; IGROV-1; K562; LOX IMVI; M14; MDA-N; Malme-3M; NCI-H226; NCI/ADR-RES; OVCAR-3; OVCAR-8; RXF 393; SF-295; SK-MEL-2; SK-MEL-5; SR; T47D; U-251; UACC-257; UACC-62.
Holding throughout (experiment): growth of human tumour cells (NCI), 48 h

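Test compounds were applied to cells in 96-well plates for 48 hours at 5 doses. At the GI50, growth is halved.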 Activity calls are given as the source filed them. No stated cut-off is given here; in the data, active = GI50 up to about 1.1 µM and inactive = higher.

As for `C[C@H]1O[C@@H](O[C@H]2[C@@H](O)C[C@H](O[C@H]3[C@@H](O)C[C@H](O[C@H]4CC[C@@]5(C)[C@H](CC[C@@H]6[C@@H]5CC[C@]5(C)[C@@H](C7=CC(=O)OC7)[C@@H](O)C[C@]65O)C4)O[C@@H]3C)O[C@@H]2C)C[C@H](O)[C@@H]1O` [GITOXIN], the GI50 in the test on CAKI-1 is 0.107 µM (active); in the test on IGROV-1, 0.416 µM (active); with K562 it was 0.361 µM (active); with LOX IMVI, 0.215 µM (active); in the test on M14 it was 0.475 µM (active); in the test on MDA-N, 0.266 µM (active). The GI50 with Malme-3M was 0.206 µM (active); in the test on NCI-H226 it was 0.855 µM (active); with NCI/ADR-RES it was 0.197 µM (active); in the test with OVCAR-3, 0.13 µM (active); in the test on OVCAR-8 it was 0.226 µM (active); in the test on RXF 393 it was 0.0991 µM (active). Moreover, the GI50 with SF-295 was 0.169 µM (active); in the test with SK-MEL-2, 0.543 µM (active); in the test with SK-MEL-5 it was 0.118 µM (active); in the test with SR, 0.287 µM (active); in the test with T47D, 0.42 µM (active); with U-251 it was 0.258 µM (active). The GI50 was 0.522 µM (active) in the test with UACC-257 and 0.418 µM (active) in the test on UACC-62.
On to `CCn1c(SCC(=O)NNC(=S)Nc2ccc([N+](=O)[O-])cc2)nc2ccccc2c1=O`, for which the GI50 with CAKI-1 was > 100 µM (inactive); with IGROV-1, > 100 µM (inactive); in the test with K562, 42.7 µM (inactive); in the test with LOX IMVI it was 54.3 µM (inactive); with M14 it was > 100 µM (inactive); in the test with MDA-N, > 100 µM (inactive). In addition, the GI50 in the test on Malme-3M is 73.5 µM (inactive); in the test on NCI-H226, 90.4 µM (inactive); in the test on NCI/ADR-RES, > 100 µM (inactive); in the test with OVCAR-3, 39.2 µM (inactive); with OVCAR-8, > 100 µM (inactive); with RXF 393, 34.5 µM (inactive). For the same compound, the GI50 is 58.2 µM (inactive) in the test with SF-295; > 100 µM (inactive) with SK-MEL-2; 79.6 µM (inactive) in the test with SK-MEL-5; 23 µM (inactive) in the test on SR; 64.3 µM (inactive) in the test on T47D; 73.3 µM (inactive) with U-251. Moreover, the GI50 in the test with UACC-257 was > 100 µM (inactive); with UACC-62, 48.9 µM (inactive).
For the compound `CN/N=C(/CCN1CCCC1)CC(c1ccccc1)c1c(O)c2ccccc2oc1=O` (stereo not given), the GI50 in the test with CAKI-1, in the test on IGROV-1, in the test with K562, with LOX IMVI, in the test with M14 and with MDA-N was > 100 µM (inactive) throughout. The GI50 in the test with Malme-3M is 39.4 µM (inactive); with NCI-H226 it was > 65.6 µM (inactive); in the test on NCI/ADR-RES it was > 100 µM (inactive); in the test on OVCAR-3 it was > 100 µM (inactive); in the test on OVCAR-8 it was > 100 µM (inactive); with RXF 393, > 100 µM (inactive). Besides, the GI50 in the test with SF-295 is > 100 µM (inactive); in the test with SK-MEL-2, > 100 µM (inactive); in the test with SK-MEL-5, > 75.5 µM (inactive); in the test on SR it was > 94.6 µM (inactive); in the test with T47D it was 49.4 µM (inactive); with U-251, > 100 µM (inactive). In addition, the GI50 with UACC-257 and in the test with UACC-62 was > 100 µM (inactive) in each case.
`CN(CCc1ccc(Cl)c(Cl)c1)CCN(C)CCN1CCCC1`: the GI50 in the test on CAKI-1 is 15.2 µM (inactive); in the test with IGROV-1 it was 17.7 µM (inactive); in the test on K562, 2.25 µM (inactive); in the test with LOX IMVI, 4.76 µM (inactive); in the test on M14, 4.86 µM (inactive); in the test with MDA-N it was 1.79 µM (inactive). The GI50 in the test with Malme-3M was 5.02 µM (inactive); in the test with NCI-H226 it was 20 µM (inactive); in the test on NCI/ADR-RES, 25.4 µM (inactive); with OVCAR-3, 23.3 µM (inactive); with OVCAR-8, 21.7 µM (inactive); with RXF 393, 10 µM (inactive). Also, the GI50 in the test on SF-295 is 16.5 µM (inactive); in the test on SK-MEL-2, 3.33 µM (inactive); with SK-MEL-5, 2.51 µM (inactive); with SR it was 4.84 µM (inactive); with T47D, 19.2 µM (inactive); in the test with U-251, 10.4 µM (inactive). For the same compound, the GI50 in the test with UACC-257 is 2.36 µM (inactive); in the test with UACC-62, 1.98 µM (inactive).
On to `NC(=O)c1ncn2c(=O)n(CCCl)nnc12` [MITOZOLOMIDE], for which the GI50 in the test with CAKI-1 is 107 µM (inactive); with IGROV-1, 132 µM (inactive); in the test with K562, 94.4 µM (inactive); in the test on LOX IMVI, 22.8 µM (inactive); in the test on M14, 195 µM (inactive); with MDA-N, 137 µM (inactive). The GI50 in the test on Malme-3M was 145 µM (inactive); in the test on NCI-H226, 158 µM (inactive); with NCI/ADR-RES, 168 µM (inactive); in the test with OVCAR-3 it was 205 µM (inactive); with OVCAR-8, 101 µM (inactive); in the test with RXF 393 it was 160 µM (inactive). For the same compound, the GI50 in the test with SF-295 was 37.7 µM (inactive); with SK-MEL-2, 249 µM (inactive); in the test with SK-MEL-5, 156 µM (inactive); in the test on SR, 47.3 µM (inactive); in the test on T47D, 214 µM (inactive); in the test on U-251, 40.4 µM (inactive). For the same compound, the GI50 is 159 µM (inactive) in the test on UACC-257 and 24.7 µM (inactive) in the test on UACC-62.
Regarding `C=CC(Br)(CBr)CCC(Br)C(C)C` (stereo not given), the GI50 in the test with CAKI-1 is 6.58 µM (inactive); in the test with IGROV-1, 3.46 µM (inactive); in the test on K562 it was 2.11 µM (inactive); in the test on LOX IMVI, 1.53 µM (inactive); in the test with M14 it was 4.16 µM (inactive); in the test with MDA-N, 2.07 µM (inactive). For the same compound, the GI50 with Malme-3M is 13.5 µM (inactive); with NCI-H226, 16.6 µM (inactive); in the test with NCI/ADR-RES, 7.85 µM (inactive); in the test on OVCAR-3, 4.5 µM (inactive); in the test with OVCAR-8, 2.44 µM (inactive); in the test with RXF 393, 5.89 µM (inactive). Besides, the GI50 was 4.26 µM (inactive) in the test on SF-295; 2.96 µM (inactive) in the test on SK-MEL-2; 5.24 µM (inactive) with SK-MEL-5; 1.62 µM (inactive) in the test on SR; 0.333 µM (active) with T47D; 3.66 µM (inactive) in the test with U-251. For the same compound, the GI50 in the test on UACC-257 was 8.18 µM (inactive); in the test with UACC-62 it was 3.12 µM (inactive).
Take `CC(=O)Nc1cc(CN2CCCCC2)c(O)c2ncccc12`: the GI50 is 16.6 µM (inactive) with CAKI-1; 28.4 µM (inactive) with IGROV-1; 21.3 µM (inactive) with K562; 20.2 µM (inactive) with LOX IMVI; 15.4 µM (inactive) with M14; 42 µM (inactive) in the test with MDA-N. Besides, the GI50 in the test with Malme-3M is 22.9 µM (inactive); in the test with NCI-H226, 31.7 µM (inactive); in the test with NCI/ADR-RES, 16.2 µM (inactive); in the test with OVCAR-3, 25.8 µM (inactive); in the test on OVCAR-8, 29.6 µM (inactive); in the test with RXF 393, 4.29 µM (inactive). Also, the GI50 is 25.4 µM (inactive) in the test on SF-295; 4.13 µM (inactive) in the test on SK-MEL-2; 24.3 µM (inactive) in the test on SK-MEL-5; 8.75 µM (inactive) with SR; 11.8 µM (inactive) in the test with T47D; 17.1 µM (inactive) with U-251. Moreover, the GI50 with UACC-257 is 24.7 µM (inactive); with UACC-62, 19.6 µM (inactive).
Take `CCOC(=O)n1cncc1CC(NC(=O)Cc1c(C(=O)C=C(C)C)[nH]c2ccccc12)C(=O)OC` (stereo not given): the GI50 was 17.9 µM (inactive) in the test on CAKI-1; 14.9 µM (inactive) in the test on IGROV-1; 33.7 µM (inactive) in the test on K562; 15.5 µM (inactive) in the test with LOX IMVI; 15.6 µM (inactive) in the test with M14; 23 µM (inactive) in the test on MDA-N. In addition, the GI50 in the test on Malme-3M is 17.2 µM (inactive); in the test with NCI-H226 it was 20.8 µM (inactive); in the test with NCI/ADR-RES, 33.4 µM (inactive); in the test on OVCAR-3, 17.7 µM (inactive); in the test on OVCAR-8, 18.5 µM (inactive); in the test with RXF 393, 14.1 µM (inactive). The GI50 in the test with SF-295 is 17.7 µM (inactive); in the test with SK-MEL-2, 17 µM (inactive); in the test on SK-MEL-5, 18 µM (inactive); in the test on SR, 3.56 µM (inactive); in the test with T47D it was 2.8 µM (inactive); in the test with U-251, 19.5 µM (inactive). Moreover, the GI50 in the test with UACC-257 was 13.3 µM (inactive); with UACC-62, 20.3 µM (inactive).
With `Clc1cccc(Cl)c1C(Nc1nncs1)Nc1nncs1`, the GI50 in the test with CAKI-1 was 75.3 µM (inactive); in the test with IGROV-1, 55.3 µM (inactive); in the test on K562 it was 31.7 µM (inactive); with LOX IMVI, 21.8 µM (inactive); in the test on M14 it was 36.2 µM (inactive); in the test with MDA-N it was 9.27 µM (inactive). The GI50 in the test with Malme-3M was 64.4 µM (inactive); in the test with NCI-H226, 26.9 µM (inactive); in the test with NCI/ADR-RES it was 50 µM (inactive); with OVCAR-3 it was 46.7 µM (inactive); in the test on OVCAR-8, 33.8 µM (inactive); in the test with RXF 393, 33.5 µM (inactive). The GI50 in the test on SF-295 is 38.2 µM (inactive); in the test on SK-MEL-2, 38.6 µM (inactive); in the test on SK-MEL-5, 32.5 µM (inactive); in the test on SR, 4.84 µM (inactive); in the test on T47D it was 56.8 µM (inactive); with U-251, 41.1 µM (inactive). The values for the GI50 with UACC-257 and in the test on UACC-62 were 18.2 µM (inactive) and 67 µM (inactive), respectively.
For the compound `Brc1c2c(c(Br)c3nsnc13)N=S=N2`, the GI50 in the test with CAKI-1 was 19.1 µM (inactive); in the test on IGROV-1 it was 23.5 µM (inactive); in the test on K562, 10.1 µM (inactive); with LOX IMVI, 3.84 µM (inactive); with M14 it was 22.5 µM (inactive); in the test with MDA-N, 26.5 µM (inactive). Also, the GI50 is 31.3 µM (inactive) in the test with Malme-3M; > 46.9 µM (inactive) in the test with NCI-H226; 26.7 µM (inactive) with NCI/ADR-RES; 20.9 µM (inactive) with OVCAR-3; 25.6 µM (inactive) in the test on OVCAR-8; 15 µM (inactive) in the test on RXF 393. Moreover, the GI50 was 27.1 µM (inactive) in the test on SF-295; 20 µM (inactive) in the test on SK-MEL-2; 20 µM (inactive) in the test with SK-MEL-5; 4.82 µM (inactive) with SR; 27.7 µM (inactive) in the test with T47D; 23.1 µM (inactive) in the test on U-251. For the same compound, the GI50 was 42.4 µM (inactive) with UACC-257 and 16.2 µM (inactive) in the test with UACC-62.
